Assay results taken from US20220288052A1, “COMPOUND FOR COMBINATION TREATMENT” (priority 2019, published 2022).
Where two headings read alike, the source gives them in different places.

How the values were obtained:
NA transporter = NA transporter (Rattus norvegicus, UniProt Q63380); test: ^3H-uptake rat, NA transporter; assay type: biochemical
Excerpt: (§1) Compound (I) has been characterized as a monoamine reuptake inhibitor, based on the profile in a series of functional assays (Table 2).

DA transporter = DA transporter (Homo sapiens, UniProt Q01959); test: ^3H-uptake human, DA transporter; assay type: biochemical
Excerpt: as §1

5-HT transporter = 5-HT transporter (Rattus norvegicus, UniProt P31652); test: ^3H-Citalopram binding, rat
Excerpt: as §1

SERT = SERT (Homo sapiens, UniProt P31645); test: MDS LeadProfilingScreen, SERT; assay type: binding
NET = NET (Homo sapiens, UniProt P23975); test: MDS LeadProfilingScreen, NET; assay type: binding
[1] = system: brain levels of noradrenalin (NA); test: In vivo microdialysis, NA; set-up: species or system rat
Experimental: The purpose of the present study was to examine, by in vivo microdialysis technique, the effects after administration of compound (I) on brain levels of serotonin, noradrenalin and dopamine within the ventral hippocampus (Hipp), prefrontal cortex (PFC), striatum (STR) and nucleus accumbens (N.Acc) of anaesthetized rats and mice. Compound (I) represents dual acting serotonin/dopamine reuptake inhibitors and was tested in comparison to citalopram a selective serotonin uptake inhibitor. Compound (I) was tested following subcutaneous injections at dose levels between 0.25-30 mg/kg. […] Pre-treatment with the 5-HT1A autoreceptor antagonist WAY-100635 induced a further minor increase of the compound (I) (0.25 mg/kg) induced increase in the PFC level of 5-HT.

[2] = system: nialamide pre-treated mice; test: Nialamide-induced 5-HT syndrome (m5-HT); assay type: in vivo, mouse
Experimental: 50 mg/kg nialamide s.c. t=120 min. Compound (I) p.o. t=0. n=4.
Compound (I) was tested in a classical test often used to measure the ability of a compound to block the reuptake of 5-HT in vivo: nialamide-induced 5-HT syndrome (m5-HT). In addition, compound (I) was tested in a locomotor activity paradigm (mLA) as a measure of its ability to block the reuptake of DA and therefore induce motility. It is generally accepted that >60% DA transporter blockade is needed to induce increased motility in this test.

mice = test: Mouse zero maze (mZM); assay type: in vivo; details: mZero maze, p.o.
Experimental: Mice were treated (peroral administration) for 7 days with either, vehicle, duloxetine (10 mg/kg), and compound I (0.1 mg/kg, 1 mg/kg, and 3 mg/kg) (n=8 in each group).
Compound (I) was tested in three widely used behavioural screens for predicting anxiolytic effects in the clinic: the mouse marble burying test (mMB), mouse zero maze (mZM) and mouse stress-induced hyperthermia test (mSIH).

[3] = Bioavailability study in dog; assay type: in vivo; details: for half-life / AUC(0-inf) / Cmax / Tmax / bioavailability / Vd / clearance: plasma; for bioavailability: 2.5 mg/kg p.o. vs 0.5 mg/kg i.v.
Experimental: A bioavailability study was also conducted in dogs. […] The i.v. dose, which was given 7 days later, was chosen as 0.5 mg/kg in order to prevent observable CNS effects. The difference between the p.o. and the i.v. dose might overestimate the bioavailability to a certain extent. […] T½ is in the same range in the two dogs and after both p.o. and i.v. administration (1.4-1.7 h).

[4] = Tissue distribution after single dose, rat; assay type: in vivo; details: sc; for AUC(0-t): male, Wistar, rat 5 mg/kg s.c., read-out: AUC(0-24 h); for half-life: rat, male Wistar rats 5 mg/kg s.c., read-out: T½ (converted)
Experimental: Compound (I) was dosed to male Wistar rats 5 mg/kg s.c. Plasma was taken 0.5, 1, 2, 4, 6 and 24 post dose. Brain, liver and lung were taken 1, 4 and 24 hours post dose.
The plasma profile was again essentially the same as for the single dose study showing the same T½ of 0.8 h. AUC and T½ were calculated for plasma and organs, even though the data are very sparse for the organs.

[5] = Metabolic stability in liver microsomes, rat; assay type: in vitro ADME
Experimental: (§2) The metabolic stability of compound (I) was tested in liver microsomes from all in house available species at 1 and 5 μM. One metabolite of 16 mass units higher than parent, was found in all incubations, except with human liver microsomes.

[6] = Metabolic stability in liver microsomes, minipig; assay type: in vitro ADME
Experimental: as §2

plasma protein [7] = test: Plasma protein binding by equilibrium dialysis, mouse; assay type: in vitro ADME
Experimental: (§3) The plasma protein binding was tested in rat, mouse, dog and human plasma by equilibrium dialysis. The plasma protein binding of this compound is remarkably low (Table 24).

plasma protein [8] = test: Plasma protein binding by equilibrium dialysis, dog; assay type: in vitro ADME
Experimental: as §3

[9] = 5 days p.o. tolerated dose study in female mice (non-GLP); assay type: in vivo, mouse; details: p.o. 5 days, 3, 5, 15, 30, 60 mg/kg
in vivo = details: male, Wistar, rat, plasma
[10] = po, Female beagle dog, 2.5 mg/kg p.o.
[11] = po, Male beagle dog, 2.5 mg/kg p.o.

Sequence of DA transporter (Q01959 whole entry): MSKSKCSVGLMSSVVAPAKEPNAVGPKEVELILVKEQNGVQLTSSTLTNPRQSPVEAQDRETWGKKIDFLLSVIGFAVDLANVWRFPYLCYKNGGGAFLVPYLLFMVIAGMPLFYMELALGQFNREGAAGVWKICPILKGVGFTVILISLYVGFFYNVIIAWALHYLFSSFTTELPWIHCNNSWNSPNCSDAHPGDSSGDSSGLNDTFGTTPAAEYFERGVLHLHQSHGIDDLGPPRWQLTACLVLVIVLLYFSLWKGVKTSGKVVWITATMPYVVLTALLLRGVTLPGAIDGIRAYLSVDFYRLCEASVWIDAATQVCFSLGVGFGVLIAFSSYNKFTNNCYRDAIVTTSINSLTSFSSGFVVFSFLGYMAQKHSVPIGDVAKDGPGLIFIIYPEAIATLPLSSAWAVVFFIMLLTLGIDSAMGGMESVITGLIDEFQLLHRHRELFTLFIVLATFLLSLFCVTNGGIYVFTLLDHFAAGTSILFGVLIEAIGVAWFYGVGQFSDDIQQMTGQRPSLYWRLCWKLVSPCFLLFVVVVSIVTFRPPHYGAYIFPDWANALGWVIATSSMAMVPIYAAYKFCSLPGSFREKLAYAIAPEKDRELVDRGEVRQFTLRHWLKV
Sequence of NET (P23975 whole entry): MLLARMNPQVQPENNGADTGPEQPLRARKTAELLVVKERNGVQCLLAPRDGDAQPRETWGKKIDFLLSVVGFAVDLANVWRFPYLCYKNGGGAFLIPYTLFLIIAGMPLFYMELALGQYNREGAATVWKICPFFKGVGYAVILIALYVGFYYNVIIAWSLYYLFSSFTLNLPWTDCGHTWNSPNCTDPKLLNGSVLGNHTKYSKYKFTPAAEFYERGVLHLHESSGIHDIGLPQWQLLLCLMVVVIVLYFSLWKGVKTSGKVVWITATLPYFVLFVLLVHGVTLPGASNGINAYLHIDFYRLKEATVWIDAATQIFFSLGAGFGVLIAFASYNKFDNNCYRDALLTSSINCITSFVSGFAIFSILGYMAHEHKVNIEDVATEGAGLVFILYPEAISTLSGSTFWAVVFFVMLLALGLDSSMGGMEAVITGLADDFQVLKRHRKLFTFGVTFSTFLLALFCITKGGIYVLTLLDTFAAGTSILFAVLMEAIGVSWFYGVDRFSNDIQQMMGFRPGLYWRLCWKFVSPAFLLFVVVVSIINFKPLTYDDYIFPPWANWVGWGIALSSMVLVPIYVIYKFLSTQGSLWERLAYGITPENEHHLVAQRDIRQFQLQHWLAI
Sequence of SERT (P31645 whole entry): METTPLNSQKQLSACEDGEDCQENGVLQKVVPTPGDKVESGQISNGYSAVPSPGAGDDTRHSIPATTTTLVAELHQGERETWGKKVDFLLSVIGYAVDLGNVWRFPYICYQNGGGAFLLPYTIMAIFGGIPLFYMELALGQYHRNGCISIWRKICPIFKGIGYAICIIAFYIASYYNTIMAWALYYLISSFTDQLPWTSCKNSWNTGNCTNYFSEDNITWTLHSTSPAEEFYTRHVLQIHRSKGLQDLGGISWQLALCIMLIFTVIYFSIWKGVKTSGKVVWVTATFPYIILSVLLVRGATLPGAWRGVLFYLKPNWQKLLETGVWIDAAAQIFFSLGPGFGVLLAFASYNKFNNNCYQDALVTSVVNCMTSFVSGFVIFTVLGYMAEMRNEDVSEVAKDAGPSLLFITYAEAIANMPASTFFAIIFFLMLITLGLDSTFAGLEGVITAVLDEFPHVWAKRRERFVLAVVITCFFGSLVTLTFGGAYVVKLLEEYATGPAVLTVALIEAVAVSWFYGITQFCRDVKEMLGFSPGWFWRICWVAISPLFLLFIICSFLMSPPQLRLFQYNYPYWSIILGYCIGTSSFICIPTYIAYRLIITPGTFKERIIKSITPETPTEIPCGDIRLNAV
Sequence of 5-HT transporter (P31652 whole entry): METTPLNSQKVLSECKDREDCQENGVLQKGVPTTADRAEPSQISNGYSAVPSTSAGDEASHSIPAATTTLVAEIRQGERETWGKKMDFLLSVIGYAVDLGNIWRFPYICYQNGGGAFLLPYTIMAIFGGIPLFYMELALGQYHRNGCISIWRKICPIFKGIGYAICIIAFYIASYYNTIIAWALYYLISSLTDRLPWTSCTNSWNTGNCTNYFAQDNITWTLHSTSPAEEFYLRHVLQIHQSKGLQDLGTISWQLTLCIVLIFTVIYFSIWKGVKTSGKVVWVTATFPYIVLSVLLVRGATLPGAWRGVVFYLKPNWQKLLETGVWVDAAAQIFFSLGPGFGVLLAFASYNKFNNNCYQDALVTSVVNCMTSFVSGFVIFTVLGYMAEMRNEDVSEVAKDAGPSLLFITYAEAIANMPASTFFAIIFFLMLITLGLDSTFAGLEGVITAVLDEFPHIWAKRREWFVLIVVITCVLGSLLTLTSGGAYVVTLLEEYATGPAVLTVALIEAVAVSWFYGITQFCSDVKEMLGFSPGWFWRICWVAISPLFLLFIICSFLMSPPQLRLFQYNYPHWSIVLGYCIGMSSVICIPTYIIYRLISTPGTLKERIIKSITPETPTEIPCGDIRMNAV
Sequence of NA transporter (Q63380 1-617): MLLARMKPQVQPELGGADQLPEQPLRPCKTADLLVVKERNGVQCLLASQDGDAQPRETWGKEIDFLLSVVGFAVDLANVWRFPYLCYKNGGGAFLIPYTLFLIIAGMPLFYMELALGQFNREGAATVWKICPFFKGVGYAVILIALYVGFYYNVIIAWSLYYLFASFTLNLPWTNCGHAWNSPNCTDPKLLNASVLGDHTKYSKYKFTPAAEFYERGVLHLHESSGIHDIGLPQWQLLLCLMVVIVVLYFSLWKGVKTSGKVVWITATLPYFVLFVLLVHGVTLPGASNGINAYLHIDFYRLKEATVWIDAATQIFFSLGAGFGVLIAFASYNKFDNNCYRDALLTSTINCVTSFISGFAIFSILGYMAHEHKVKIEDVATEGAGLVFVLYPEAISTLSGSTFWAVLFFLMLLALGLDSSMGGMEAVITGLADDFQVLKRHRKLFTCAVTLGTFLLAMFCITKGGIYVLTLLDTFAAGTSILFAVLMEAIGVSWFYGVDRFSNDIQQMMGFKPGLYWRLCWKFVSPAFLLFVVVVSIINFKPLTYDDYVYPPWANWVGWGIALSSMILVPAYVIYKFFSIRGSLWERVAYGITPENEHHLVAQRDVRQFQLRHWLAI

O=c1ccc2ccc(O[C@@H]3C[C@H]4CC[C@@H](C3)N4)cc2o1 [Compound (I), exo-7-(8-aza-bicyclo[3.2.1]oct-3-yloxy)-chromen-2-one]
IC50 (NA transporter): 85 nM | IC50 (DA transporter): 100 nM | Ki (DA transporter): 100 nM | Human transporter ratio (DA transporter; DA versus 5-HT): 56 | Ki (5-HT transporter): 0.28 nM | Ki (SERT): 0.37 nM | inhibition at 10 µM (SERT; SERT, Human, 10 μM): 103% | Ki (NET): 594 nM | inhibition at 10 µM (NET; NET, Human, 10 μM): 92% | NA (AUC0-160 min) ([1]; Hippocampus, 3 mg/kg s.c., 3 mg/kg): 138±13% | NA (AUC0-160 min) ([1]; Pre-frontal cortex, 10 mg/kg s.c., 10 mg/kg): 135±4% | MED ([2]; m5-HT, p.o. 0 min): 0.1 mg/kg | Potency in 5-HT syndrome relative to the reference compounds tested ([2]; nialamide pre-treated mice): 100 times | MED (mice; acute, −60 min): >10 mg/kg | MED (mice; 7 days OD): <0.3 mg/kg | half-life ([3]; both sexes, beagle, dog, other: p.o. and i.v., the two dogs, after both p.o. and i.v. administration, read-out: T½): 1.4 to 1.7 h | CNS effects ([3]; dogs, after 2.5 mg/kg p.o.): some CNS effects were observed | AUC(0-inf) ([3]; iv, Female beagle dog, 0.5 mg/kg i.v., read-out: AUC(0-∞) i.v.): 194 ng·h/mL | half-life ([3]; iv, Female beagle dog, 0.5 mg/kg i.v., read-out: T½ i.v. (converted)): 1.4 h | AUC(0-inf) ([3]; iv, Male beagle dog, 0.5 mg/kg i.v., read-out: AUC(0-∞) i.v.): 343 ng·h/mL | half-life ([3]; iv, Male beagle dog, 0.5 mg/kg i.v., read-out: T½ i.v. (converted)): 1.6 h | Cmax [3, 10]: 339 ng/mL | Tmax [3, 10]: 0.5 h | bioavailability ([3]; po, Female beagle dog): 114% | AUC(0-inf) ([3]; po, Female beagle dog, 2.5 mg/kg p.o., read-out: AUC(0-∞) p.o.): 1110 ng·h/mL | half-life ([3]; po, Female beagle dog, 2.5 mg/kg p.o., read-out: T½ p.o. (converted)): 1.6 h | Cmax [3, 11]: 418 ng/mL | Tmax [3, 11]: 0.5 h | bioavailability ([3]; po, Male beagle dog): 84% | AUC(0-inf) ([3]; po, Male beagle dog, 2.5 mg/kg p.o., read-out: AUC(0-∞) p.o.): 1440 ng·h/mL | half-life ([3]; po, Male beagle dog, 2.5 mg/kg p.o., read-out: T½ p.o. (converted)): 1.7 h | Vd ([3]; Female beagle dog): 5 L/kg | clearance ([3]; Female beagle dog): 43.3 mL/min/kg | Vd ([3]; Male beagle dog): 3.4 L/kg | clearance ([3]; Male beagle dog): 25 mL/min/kg | AUC(0-t) ([4]; Brain): 3190 ng·h/mL | AUC(0-t) ([4]; Liver): 493 ng·h/mL | AUC(0-t) ([4]; Lung): 17600 ng·h/mL | AUC(0-t) ([4]; Plasma): 805 ng·h/mL | half-life ([4]; Brain): 3.6 h | half-life ([4]; Lung): 2.6 h | half-life ([4]; Plasma): 0.8 h | Stability at 1 μM [5]: 40% | Stability at 5 μM [5]: 61% | Stability at 1 μM [6]: 88% | Stability at 5 μM [6]: 98% | fraction unbound at 2710 ng/ml (plasma protein [7]): 0.747 | fraction unbound at 2710 ng/ml (plasma protein [8]): 0.871 | Activity [9]: increase in activity (sedation and stereotypic behaviour) | Body weight [9]: no significant changes in bodyweight | Vd (in vivo; intravenous, 2.5 mg/kg): 5.6 L/kg | clearance (in vivo; intravenous, 2.5 mg/kg): 137 mL/min/kg | AUC(0-inf) (in vivo; iv, 2.5 mg/kg): 306 ng·h/mL | half-life (in vivo; iv, 2.5 mg/kg): 0.8 h | bioavailability (in vivo; oral, 5 mg/kg): 3% | AUC(0-inf) (in vivo; po, 5 mg/kg): 17 ng·h/mL | Cmax (in vivo; po, 5 mg/kg): 8 ng/mL | Tmax (in vivo; po, 5 mg/kg): 0.5 h
